In patent publication US20200341014A1, “PD Marker of Hepatocyte Growth Factor (HGF)” (EISAI R&D MANAGEMENT CO., LTD., priority 2016, published 2020):

Key:
[1] = test system: human ApoA4 protein; test: Western blot quantification of human ApoA4 protein in human hepatocyte culture supernatant; type: cell-based; details: FIG. 6
Protocol: (§1) Human primary culture hepatocytes seeded in a 24-well plate (3.8×10^5 cells/well, Biopredic International, #HEP220-MW24) were cultured for three days in Incubation Medium (product name: Biopredic International, #MIL214), then c-Met inhibitor PF-04217903 (final concentration 100 nmol/L) (Selleck Chemicals, #S1094, lot. 05) or vehicle (DMSO) was added, and after 1 hour, rh-HGF (final concentration 100, 300, or 1000 ng/mL) or (Incubation Medium) for the control group (Control) was added.
Using hepatocyte culture supernatant (the same culture supernatant as that of cells for preparation of mRNA) 24 Hours after addition of rh-HGF, ApoA4 protein was quantified by Western blot method. […] After washing three times with the above wash solution, chemiluminescence solution SuperSignal West Dura Extended Duration Substrate (Thermo Scientific) was added to allow luminescence, and ApoA4 protein was detected with LAS-4000 (FUJIFILM).
With the quantification results of ApoA4 protein, Dunnett's multiple comparison test was carried out between the control and the rh-HGF administration groups.

[2] = test system: human ApoA4 mRNA; test: Real-time PCR of human ApoA4 mRNA in human primary culture hepatocytes treated with rh-HGF; type: cell-based; details: FIG. 5
Protocol: as §1
From hepatocytes 24 hours after addition of rh-HGF, total RNA was purified with RNeasy Mini Kit (QIAGEN, #74104) and RNase-Free DNase set (QIAGEN, #79254), and RNA concentration was measured by absorbance. The purified total RNA was reverse transcripted using High-Capacity cDNA Reverse Transcription Kit with RNase Inhibitor (Applied Biosystems, #4374966) to create cDNA. With the cDNA obtained as the template, the amount of ApoA4 mRNA expressed was examined by real-time PCR method. 18S rRNA was used as the internal control for examination. […]
(§2) With the results of ApoA4 mRNA quantification, Dunnett's multiple comparison test was carried out between the control and the rh-HGF administration groups.

[3] = test system: ApoA4 protein; test: Western blot quantification of serum ApoA4 protein in mice administered rh-HGF and c-Met inhibitor (Example 2); type: in vivo, mouse; details: FIG. 3
Protocol: (§3) To BALB/cAnNCrlCrlj male 6 weeks-old mice (CHARLES RIVER JAPAN), c-Met inhibitor PF-04217903 (50 mg/kg) (Selleck Chemicals #S1094, lot. 05) or vehicle (5% DMSO, 10% Tween80, 6.7 mmol/L aqueous hydrochloric acid solution) was orally administered at a dose of 10 mL/kg, and after 1 hour, rh-HGF (0.5, 1.5, 5.0, or 15 mg/kg) or PBS was intravenously administered. […] After euthanization, hepatic tissue was collected and immersed in RNA later (Ambion, #AM7021). Serum was collected from the blood collected.
Using the above serum, ApoA4 protein was quantified by Western blot method. To the serum diluted 200-folds with PBS (−) (Wako), ¼ volume of the electrophoresis buffer solution (313 mM Tris-HCl (pH 6.8), 10% SDS, 30% Glycerol, 0.2 mg/mL Bromo-phenol blue, and 25% 2-Mercaptoethnol) was added (the final dilution of the serum will be 250-folds), and this was subjected to heat treatment at 95° C. for 3 minutes. […] After washing three times with the above wash solution, chemiluminescence solution SuperSignal West Dura Extended Duration Substrate (Thermo Scientific) was added to allow luminescence, and ApoA4 protein was detected with LAS-4000 (FUJIFILM).
For the results of serum ApoA4 protein quantification, Dunnett's multiple comparison test was carried out between the control and the rh-HGF administration groups.

[4] = test system: ApoA4 mRNA; test: Real-time PCR of liver ApoA4 mRNA in mice administered rh-HGF and c-Met inhibitor (Example 2); type: in vivo, mouse; details: FIG. 2
Protocol: as §3
From the harvested liver, total RNA was purified with TRIZOL Reagent (Invitrogen, #15596-018), RNeasy Mini Kit (QIAGEN, #74104), and RNase-Free DNase set (QIAGEN, #79254), and RNA concentration was measured by absorbance.
Quantification of ApoA4 mRNA by real-time PCR method was carried out according to Example 1.
as §2

[5] = test system: Jo2 liver failure model; test: Severity of hepatopathy (AST, ALT, PT) in Jo2 liver failure model; type: in vivo, mouse; details: Jo2 liver failure mice, rh-HGF into tail vein 1 hour before anti-Fas MAb, 5 hours after MAb; FIG. 4
Protocol: To BALB/cAnNCrlCrlj male 6 weeks-old mice (CHARLES RIVER JAPAN), 0.23 mg/kg of anti-Fas monoclonal antibody (clone name: Jo2, BD Pharmingen, #554254, lot#3269634) was administered once into the tail vein to create an acute liver failure model. To this model, rh-HGF dissolved in PBS was administered into the tail vein at 0.15, 1.5, or 15 mg/kg 1 hour before administration of anti-Fas monoclonal antibody. For the control group (Control), PBS was administered into the tail vein. Five hours after the administration of anti-Fas monoclonal antibody, mice were retained under anesthesia by 3% isoflurane inhalation, blood was collected from the vein located behind the jaw bone, and Prothrombin time (PT) was measured with CoaguChek XS (Roche-diagnostics, #ES350009) and PT Test strips (Roche-diagnostics, #ES350054). […] The measurement of Aspartate Aminotransferase (AST) and Alanine transaminase (ALT) in the serum was each performed with L-type Wako AST·J2 (Wako) kit and L-type Wako ALT·J2 (Wako) kit and an automatic analysis device (Hitachi 7180 Automatic Analyzer, Hitachi High-Technologies). With the measurement results of PT, AST, ALT, and serum ApoA4 protein, Dunnett's multiple comparison test was carried out between the control and the rh-HGF administration groups (FIG. 4).

[6] = test system: ApoA4 mRNA; test: Real-time PCR of ApoA4 mRNA from liver of healthy mice administered rh-HGF (Example 1); type: in vivo, mouse; details: rh-HGF 1.5 mg/kg intravenous, 8 and 24 hr; FIG. 1
Protocol: (§4) Using hepatocyte growth factor activator recombinantly expressed in Chinese hamster ovary (CHO) cells, human HGF recombinantly expressed in CHO cells were activated to obtain rh-HGF. BALB/cAnNCrlCrlj male 6 weeks-old mice (CHARLES RIVER JAPAN) were intravenously administered with Dulbecco's Phosphate buffered saline (PBS) (Wako, #045-29795) or rh-HGF (1.5 mg/kg). […] After euthanization, hepatic tissue was collected and immersed in RNA later (Ambion, #AM7021).
The same RNA as the sample employed for DNA microarray was reverse transcripted using High-Capacity cDNA Reverse Transcription Kit with RNase Inhibitor (Applied Biosystems, #4374966) to create cDNA. With the cDNA obtained as the template, the amount of ApoA4 mRNA expressed was examined by real-time PCR method. Hprt mRNA was used as the internal control for examination. For PCR reaction, PCR amplification reaction was carried out with TaqMan Fast Advanced Master Mix (Applied Biosystems, #4444557) and TaqMan Assay (ApoA4: Mm00431814_m1, Hprt: Mm03024075_m1, Applied Biosystems) and using ViiA7 Real-time PCR System (Applied Biosystems). […]
With the results of ApoA4 mRNA quantification, Dunnett's multiple comparison test was carried out between the control and the rh-HGF administration groups (FIG. 1).

[7] = test system: ApoA4 gene expression; test: DNA microarray analysis of hepatic tissue of healthy mice administered rh-HGF; type: in vivo, mouse
Protocol: as §4
From the harvested liver, total RNA was purified with TRIZOL Reagent (Invitrogen, #15596-018), RNeasy Mini Kit (QIAGEN, #74104), and RNase-Free DNase set (QIAGEN, #79254). RNA concentration was measured by absorbance, and then quality check was carried out with RNA 6000 Nano Assay Kit (Agilent Technologies, #5067-1511) using 2100 Bioanalyzer (Agilent Technologies).
The DNA microarray used was SurePrint G3 mouse GE 8×60K (Agilent Technologies, #G4852A). […] Among this, as molecules that may appear to possibly exist as soluble proteins, those having information of “Extracellular” or “Plasma membrane” in Gene Ontology annotation were extracted.

[8] = test system: ApoA4 protein; test: Western blot quantification of serum ApoA4 protein in Jo2 liver failure mice; type: in vivo, mouse; details: rh-HGF at 1.5, 5, or 15 mg/kg, FIG. 4
Protocol: To BALB/cAnNCrlCrlj male 6 weeks-old mice (CHARLES RIVER JAPAN), 0.23 mg/kg of anti-Fas monoclonal antibody (clone name: Jo2, BD Pharmingen, #554254, lot#3269634) was administered once into the tail vein to create an acute liver failure model. […] For the control group (Control), PBS was administered into the tail vein.
Quantification of serum ApoA4 protein was carried out according to Example 2.
With the measurement results of PT, AST, ALT, and serum ApoA4 protein, Dunnett's multiple comparison test was carried out between the control and the rh-HGF administration groups (FIG. 4).

[9] = PF-04217903 100 nmol/L added 1 hour before rh-HGF
[10] = PF-04217903 50 mg/kg oral 1 hour before rh-HGF
[11] = rh-HGF 0.5-15 mg/kg intravenous, 24 hours

Compound | Effect on rh-HGF enhancement of extracellular release of human ApoA4 protein [1, 9] | Effect on rh-HGF enhancement of human ApoA4 mRNA expression [2, 9] | Effect on rh-HGF induction of serum ApoA4 protein [3, 10] | Effect on rh-HGF induction of liver ApoA4 mRNA expression [4, 10] | Effect on elevation of ALT [5] | Effect on elevation of AST [5] | Effect on extension of PT (Prothrombin time) [5] | ApoA4 mRNA expression in liver (real-time PCR, Hprt internal control) [6] | Signal value (average) 8 hours, ApoA4 (A_51_P327491) ([7]; liver, 8 hr after rh-HGF 1.5 mg/kg intravenous) | Change in expression (vs 0 hours) 8 hours Ratio, ApoA4 ([7]; liver, 8 hr after rh-HGF 1.5 mg/kg intravenous, vs PBS group) | Signal value (average) 24 hours, ApoA4 (A_51_P327491) ([7]; liver, 24 hr after rh-HGF 1.5 mg/kg intravenous) | Change in expression (vs 0 hours) 24 hours Ratio, ApoA4 ([7]; liver, 24 hr after rh-HGF 1.5 mg/kg intravenous, vs PBS group) | ApoA4 expression in liver (DNA microarray) ([7]; rh-HGF 1.5 mg/kg intravenous vs PBS only (Group 1)) | Blood ApoA4 protein value [8] | Extracellular release of human ApoA4 protein ([1]; human primary culture hepatocytes, culture supernatant, rh-HGF 100, 300 or 1000 ng/mL, 24 hours) | Human ApoA4 mRNA expression ([2]; human primary culture hepatocytes, rh-HGF 100, 300 or 1000 ng/mL, 24 hours) | ApoA4 protein expression in the serum [3, 11] | ApoA4 mRNA expression in the liver [4, 11]
OCCn1cc(-c2cnc3nnn(Cc4ccc5ncccc5c4)c3n2)cn1 [PF-04217903, reference compound] | inhibited | inhibited | inhibited | significantly inhibited |  |  |  |  |  |  |  |  |  |  |  |  |  | 
rh-HGF: human HGF recombinantly expressed in CHO cells, activated with hepatocyte growth factor activator recombinantly expressed in CHO cells |  |  |  |  | strongly inhibited | strongly inhibited | strongly inhibited | strongly enhanced | 15738 | 6.46 | 13453 | 5.52 | enhancement of expression | significant elevation | strongly enhanced | strongly enhanced | induction of ApoA4 protein expression | significantly induced/enhanced
